Measurements taken from patent US8101740B2, “Positron emission tomography probes for imaging immune activation and selected cancers” (The Regents of the University of California, priority 2007, dated 2012).
Where two headings read alike, the source gives them in different places.

Experiments:
[1] = test system: L1210 murine leukemia cells (dCK^+); assay: radioactive tracer uptake assay, L1210 parental cells; assay type: cell-based; conditions: for dependence of retention and phosphorylation on dCK expression: L1210 wild type vs 10K cells, 1 hour incubation
Source text: (§1) To evaluate whether [^18F]D-FAC PET can determine resistance to gemcitabine and Ara-C, we used a previously described experimental model based on the L1210 murine leukemia cells and their gemcitabine/Ara-C resistant 10K derivatives^20. The molecular defect responsible for resistance in the L1210 10K cells is loss of dCK expression due to a genetic modification of chromosome 5 in the 3′ region of the dCK gene. The 10K cell line was derived by exposing the parental L1210 cells to increasing concentrations of gemcitabine^20; before experiments, we confirmed that L1210 10K cells lack expression of dCK at the protein level (FIG. 13). Thus, to determine whether D-FAC retention correlates with gemcitabine resistance in these cells, we performed radioactive tracer uptake assays using [^3H]D-FAC with [^3H]-FLT used as a negative control. We observed that the gemcitabine-resistant L1210-10K cell line retained much lower amounts of [^3H]D-FAC in contrast to the gemcitabine-sensitive L1210 parental cell line (FIG. 14A). In fact, [^3H]D-FAC uptake was 40-fold higher in dCK^+ cells compared to cells lacking dCK activity (dCK^+=1288 fmols/1×10^5 cells; dCK-=34 fmols/1×10^5 cells; p<0.001). In contrast, [^3H]FLT uptake was indistinguishable between these cell lines. FIG. 14B presents a [^3H]D-FAC kinase assay with the L1210 cell lines using [^3H]D-FAC as a substrate (1 microgram protein/reaction). In dCK positive cells shown in FIG. 14B, D-FAC phosphorylation was 52-fold higher than in dCK deficient cells (dCK^+=62 fmols; dCK^−=1.2 fmols; p=0.028). Reintroduction of dCK into the L1210-10K cells restored [^18F]D-FAC uptake and phosphorylation (FIG. 14), thus further confirming the critical role of this nucleoside kinase in regulating D-FAC metabolism.
(§2) Each cell type was incubated separately with each of the following: [^18F]L-FAC, and [^18F]-CA, and the positive control [^18F]D-FAC. The cells were incubated with [^18F]L-FAC, [^18F]-CA, and [^18F]D-FAC for 1 hour. Following successive washes, intracellular radioactivity was measured by scintillation counting to obtain the result shown in FIG. 17A.

[2] = test system: pancreatic inflammatory lesions; assay: PET/CT scan of human with chronic pancreatitis; assay type: in vivo; conditions: person
Source text: FIG. 30 presents PET/CT scans of a human with chronic pancreatitis. The pancreas head 301 is visible.

[3] = test system: L1210 wild type or 10K subcutaneous tumors; assay: PET of subcutaneous L1210 wild type and 10K tumors; assay type: in vivo, SCID mice
Procedure: To investigate whether [^18F]D-FAC PET can distinguish gemcitabine-sensitive cancer cells from the resistant cancer cells in vivo, mice were injected with L1210 wild type or 10K cells to establish subcutaneous tumors; mice were scanned with [^18F]FDG PET to confirm that implanted cells were viable and growing in vivo and [^18F]D-FAC PET scans were carried out to compare D-FAC accumulation in gemcitabine sensitive versus resistant cells. […] The mice were injected 4 days prior to imaging.
Mice were challenged with the MoMSV onco-retrovirus.

[4] = chromatography after incubation of probe with human plasma; conditions: 10 and 45 minutes incubation
Procedure: FIG. 19 presents chromatographs of [^18F]D-FAC (FIG. 19C) and [^18F]L-FAC (FIG. 19D) in plasma 10 minutes and 45 minutes after the probe was incubated with human plasma.

[5] = chromatography of plasma after intravenous injection of probe (deamination); assay type: in vivo, C57BL/6 mouse; conditions: plasma 10 and 45 minutes after intravenous injection
MoMSV-induced sarcomas = assay: microPET/CT in oncoretrovirus (MoMSV) sarcoma model of anti-tumor immunity
Procedure: All the mice used in these studies were bred and maintained according to the guidelines of the Department of Laboratory Animal Medicine (DLAM) at the University of California, Los Angeles. For the oncoretrovirus-induced sarcoma model, C57/BL6 mice were challenged intramuscularly in the right triceps with the Moloney murine sarcoma and leukemia virus complex (MoMSV) in a volume of 100 uL of PBS as described previously^6. B6-MRL-Fas^1pr/J mice used for systemic autoimmunity studies were purchased from the Jackson Laboratory (stock number 000482). To monitor the immunosuppressive treatment, these mice were given intraperitoneal injections of dexamethasone (DEX, 10 mg/kg) at 24 hr intervals and were scanned by microPET/CT 24 hr after the last injection. Animals were anesthetized with 2% isoflurane, injected intravenously with 200 microCi [^18F]D-FAC and then scanned with microPET/CT; mice were sacrificed immediately after imaging. Organs were rapidly excised, weighed, and the radioactivity was measured in a well counter. After decay correction, results were expressed as percent of the injected dose of activity per gram of tissue (% ID/g). Other mice were anesthetized with 2% isoflurane and injected intravenously with 1 mCi [^18F]D-FAC. After 1 hr, mice were euthanized, embedded in 3% carboxymethyl cellulose (CMC, Sigma), and frozen in 100% ethanol with dry ice for 45 min. The 50 micron sections were cut using a whole body cryostat, (PMV, Stockholm, Sweden); samples were exposed overnight on BAS-TR2025 plates (Fujifilm Life Science, Stamford, Conn.). Imaging plates were read using a Fujibas-5000 phosphorimager (16 bit, 25 micron resolution; Fujifilm Life Science).
In this model, antigen-specific T cells primed by immunodominant epitopes encoded by viral gag and env genes rapidly expand in spleen and tumor draining lymph nodes (DLNs) and then traffic to the tumor lesion which is rejected over a period of 2-5 weeks^17,18. In fact, the kinetics of T cell responses against MoMSV-induced sarcomas have been studied extensively using conventional ex vivo approaches and our group has used PET reporter gene imaging to visualize tumor rejection in this model^17. To analyze whether the [^18F]D-FAC microPET/CT imaging can detect sites of localized immune activation, mice were scanned before and after the virus challenge.
To determine whether [^18F]D-FAC can provide unique information regarding localized immune activation via the afore-mentioned model, the mice imaged by [^18F]D-FAC were also scanned on consecutive days using [^18F]FDG and [^18F]FLT.

[6] = target: T1, deoxycytidine kinase (dCK) (Mus musculus, UniProt P43346); assay: kinase assay with L1210 cell line lysates; assay type: biochemical, murine
T1 construct: endogenous in cells; host or cells: L1210 murine leukemia cells (wild type), whole-cell lysate; L1210-10K (dCK-deficient) as negative control
T1 sequence (P43346 whole entry): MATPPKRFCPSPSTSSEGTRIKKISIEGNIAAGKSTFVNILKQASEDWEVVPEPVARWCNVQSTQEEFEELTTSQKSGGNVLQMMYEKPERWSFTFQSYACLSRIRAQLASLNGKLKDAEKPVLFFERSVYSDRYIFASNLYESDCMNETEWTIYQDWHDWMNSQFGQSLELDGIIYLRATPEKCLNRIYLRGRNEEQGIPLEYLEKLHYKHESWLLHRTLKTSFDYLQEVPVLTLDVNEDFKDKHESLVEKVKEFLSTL
Source text: as §1, §2
(§3) Lysates from L1210 wildtype (WT) and dCK deficient (10K) cells were incubated for 20 minutes with [^18F]L-FMAC; phosphorylated products were measured by scintillation counting.

[7] = test system: T lymphocytes from pmel-1 T cell receptor (TCR) transgenic mice; assay: retention of ^3H-labeled nucleoside analogs in naïve and proliferating primary T cells; assay type: cell-based, mouse
Procedure: In order to identify candidates for PET probes that can distinguish between activated T cells and non-activated, naïve T cells, we conducted a radioactive uptake assay, the results of which are shown in FIG. 1. […] These measurements were performed after incubating cells with radioactive compounds for 1 hr and performing successive washes to remove unincorporated probes. […] For example, we identified compounds #1 through #15 (see FIG. 2A for chemical structures) as PET probe candidates useful for detecting activated T cells. FIG. 2A presents substrates of dCK labeled with the ^18F positron emitting radioisotope.
T lymphocytes from pmel-1 T cell receptor (TCR) transgenic mice were stimulated ex vivo using a melanoma antigen (1 micromolar hgp 10025-33). These cells were then cultured for radioactive uptake and kinase assays that were performed 72 hours post-stimulation. […] The plate was then washed 5 times with media containing 5% fetal calf serum (FCS) by using the Millipore Vacuum Manifold (Billerica, Mass.); the amount of incorporated probe was measured by scintillation counting using the PerkinElmer Microbeta (Waltham, Mass.). […]
FIG. 1 identifies fluorinated deoxycytidine analogs retained in activated versus naive T lymphocytes and incorporated into DNA. […] Following successive washes, intracellular radioactivity was measured by scintillation counting. […]

[8] = test system: NIH3T3 fibroblasts engineered to overexpress nucleoside kinases (dCK) and the nucleoside transporter SLC29A1; assay: [^3H]D-FAC uptake in engineered NIH3T3 fibroblasts; assay type: cell-based
[9] = test system: deoxycytidine kinase (dCK); assay: kinase assay with L1210 cell line lysates; assay type: biochemical, murine; conditions: dCK^− cells; 1 microgram protein/reaction
Source text: as §1, §2, §3

[10] = test system: L1210-10K cell line (lacking dCK); assay: radioactive tracer uptake assay, L1210-10K cells; assay type: cell-based, murine
Source text: To evaluate whether [^18F]D-FAC PET can determine resistance to gemcitabine and Ara-C, we used a previously described experimental model based on the L1210 murine leukemia cells and their gemcitabine/Ara-C resistant 10K derivatives^20. The molecular defect responsible for resistance in the L1210 10K cells is loss of dCK expression due to a genetic modification of chromosome 5 in the 3′ region of the dCK gene. The 10K cell line was derived by exposing the parental L1210 cells to increasing concentrations of gemcitabine^20; before experiments, we confirmed that L1210 10K cells lack expression of dCK at the protein level (FIG. 13). Thus, to determine whether D-FAC retention correlates with gemcitabine resistance in these cells, we performed radioactive tracer uptake assays using [^3H]D-FAC with [^3H]-FLT used as a negative control. We observed that the gemcitabine-resistant L1210-10K cell line retained much lower amounts of [^3H]D-FAC in contrast to the gemcitabine-sensitive L1210 parental cell line (FIG. 14A). […]
Each cell type was incubated separately with each of the following: [^18F]L-FAC, and [^18F]-CA, and the positive control [^18F]D-FAC. […] Following successive washes, intracellular radioactivity was measured by scintillation counting to obtain the result shown in FIG. 17A.

[11] = spleen, 60 min after intravenous injection, 3 mice
[12] = C57/BL6, mouse, in vivo, iv, 60 min

In the case of Nc1nc(Cl)nc2c1ncn2[C@@H]1O[C@H](CO)[C@@H](O)[C@@H]1[18F] [[^18F]-CA, 2-chloro-9-(2′-deoxy-2′-[^18F]fluoro-β-D-arabinofuranosyl)adenine], the “dependence of retention and phosphorylation on dCK expression” value (shortened to “dependence”) [1] is reported as “requires dCK expression”.
In the case of Cc1cn([C@@H]2O[C@H](CO)[C@@H](O)[C@@H]2F)c(=O)[nH]c1=O [[^18F]FMAU, 1-(2′-Deoxy-2′-fluoro-β-D-arabinofuranosyl)-5-methyluracil], the “accumulation in thymus and spleen” value (60 min after intravenous injection) is reported as “neither [^18F]FLT nor [^18F]D-FMAU showed detectable accumulation”, the “Spleen, % ID/g per organ normalized to % ID/g muscle” value (from here on “Spleen, % ID/g per organ normalized”) [11] is reported as 1.08 +/− 0.27 % ID/g per organ normalized to % ID/g muscle and the “Thymus, % ID/g per organ normalized to % ID/g muscle” value (thymus, 60 min after intravenous injection, 3 mice) is reported as 1.33 +/− 0.24 % ID/g per organ normalized to % ID/g muscle.
With Nc1ccn([C@H]2O[C@@H](CO)[C@H](O)[C@H]2[18F])c(=O)n1 [[^18F]L-FAC, 1-(2′-deoxy-2′-[^18F]fluoro-β-L-arabinofuranosyl)cytosine] the “biodistribution compared with [^18F]D-FAC” value (60 minutes after intravenous injection) was “resembles that of [^18F]D-FAC”, the “accumulation in pancreatic inflammatory lesions” value [2] was “clear accumulation” and the “retention/visualization in dCK deficient, gemcitabine resistant tumors” value ([3]; L1210-10K, 4 days after injection) was “not visualization”. The “retention/visualization in dCK positive, gemcitabine sensitive tumors” value ([3]; L1210 WT, 4 days after injection) was “allows visualization”, the “stability in human plasma” value [4] was “improved stability relative to [^18F]D-FAC” and the “dependence” value [1] was “requires dCK expression”. For the same compound, the “resistance to deamination in plasma after injection into mice” value [5] was “more resistant to deamination than [^18F]D-FAC”.
In the case of Cc1cn([C@H]2C[C@H](F)[C@@H](CO)O2)c(=O)[nH]c1=O [[^18F]FLT, 3′-fluoro-3′-deoxythymidine], the “Spleen, % ID/g per organ normalized” value [12] is reported as 1.02 +/− 0.21 % ID/g per organ normalized to % ID/g muscle, the “Thymus, % ID/g per organ normalized to % ID/g muscle” value [12] is reported as 1.22 +/− 0.23 % ID/g per organ normalized to % ID/g muscle and the “accumulation in thymus and spleen” value [12] is reported as “neither [^18F]FLT nor [^18F]D-FMAU showed detectable accumulation”. For the same compound, the “accumulation at sites of immune activation” value (MoMSV-induced sarcomas; day 14) was “no detectable”.
With “2-[^18F]fluoro-2-deoxy-D-glucose [[^18F]FDG, reference compound]” the “retention in the brain and the myocardium” value (mouse, in vivo) was “substantially accumulates”, the “Spleen, % ID/g per organ normalized” value [11] was 1.69 +/− 0.16 % ID/g per organ normalized to % ID/g muscle and the “accumulation in gemcitabine sensitive versus resistant cells” value ([3]; mouse, in vivo) was “equivalent”. For the same compound, the “accumulation in tumor over background (contralateral muscle tissue)” value (MoMSV-induced sarcomas; tumor lesions) was 8.2±4.2 % ID/g tumor over background.
With Cc1cn([C@H]2O[C@@H](CO)[C@H](O)[C@H]2[18F])c(=O)nc1N [[^18F]L-FMAC] the “resistance to deamination in plasma after injection into mice” value [5] was “resistant to deamination” and the “dependence” value ([6]; L1210 WT and 10K lysates, 20 minutes incubation) was “requires dCK expression”.
In the case of Nc1ccn([C@@H]2O[C@H](CO)[C@@H](O)C2(F)F)c(=O)n1 [dFdC, 2′,2′-difluorodeoxycytidine, reference compound], the “difference in probe retention by proliferating compared to naïve T cells” value ([7]; 1 hr incubation, 72 hrs after stimulation) is reported as greater than 20 fold.
For Nc1ccn(C2O[C@H](CO)[C@@H](O)[C@@H]2F)c(=O)n1 (stereo partly drawn) [[^3H]D-FAC, 1-(2′-deoxy-2′-fluoro-arabinofuranosyl) cytosine], the “uptake in cells overexpressing dCK and SLC29A1” value [8] was “increased uptake”, the uptake ([1]; dCK^+ cells) was 1288 fmols/1×10^5 cells and the “uptake in dCK^+ cells compared to cells lacking dCK activity” value ([1]; p<0.001) was 40 fold. For the same compound, the phosphorylation ([6]; dCK^+ cells, 1 microgram protein/reaction) was 62 fmols, the “phosphorylation in dCK positive cells versus dCK deficient cells” value ([6]; p=0.028) was 52 fold and the phosphorylation [9] was 1.2 fmols. For the same compound, the uptake [10] was 34 fmols/1×10^5 cells and the “incorporation into DNA of proliferating T cells” value [7] was “incorporated in the DNA”.
For Cc1cn([C@H]2C[C@H](F)[C@@H](CO)O2)c(=O)[nH]c1=O [[^3H]FLT, 3′-fluoro-3′-deoxythymidine, reference compound], the “uptake compared between L1210 and L1210-10K cell lines” value ([1]; negative control) was “indistinguishable”.
